The term IC50 denotes the concentration that inhibits the measured activity by half.

Data on 45 molecules can be found in patent EP4120837B1, “INHIBITORS OF CYTOKININ OXIDASE DERIVED FROM 2-(3-PHENYLUREIDO)BENZAMIDE, USE THEREOF AND PREPARATIONS CONTAINING THESE DERIVATIVES” (Univerzita Palackého v Olomouci, priority 2020, dated 2021).

The target of the first test is T1, ZmCKX1 (Zea mays, UniProt Q9T0N8).
T1 construct: made in house; host or cells: Yarrowia lipolytica
T1 sequence (Q9T0N8 19-534): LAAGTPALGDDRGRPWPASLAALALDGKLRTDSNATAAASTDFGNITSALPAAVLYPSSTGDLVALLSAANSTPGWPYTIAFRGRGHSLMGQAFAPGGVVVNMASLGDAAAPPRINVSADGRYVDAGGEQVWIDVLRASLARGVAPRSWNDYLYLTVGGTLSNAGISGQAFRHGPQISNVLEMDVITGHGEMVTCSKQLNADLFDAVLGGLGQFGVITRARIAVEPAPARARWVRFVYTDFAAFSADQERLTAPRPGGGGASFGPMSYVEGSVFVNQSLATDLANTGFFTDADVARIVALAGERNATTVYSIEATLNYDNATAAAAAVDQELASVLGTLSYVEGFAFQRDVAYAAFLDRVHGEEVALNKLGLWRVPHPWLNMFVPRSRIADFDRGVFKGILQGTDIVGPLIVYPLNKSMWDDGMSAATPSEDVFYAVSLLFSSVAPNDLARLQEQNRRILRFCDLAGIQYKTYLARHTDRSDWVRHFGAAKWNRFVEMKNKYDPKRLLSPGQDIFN
The test can be described thus: ZmCKX1 inhibition, PMS/MTT assay.
Conditions: not given
Type of test: biochemical, maize. How it is done: The IC50 (concentration of a substance that causes 50% inhibition of the enzyme activity) was measured by PMS/MTT assay [phenazine methosulphate/3-(4,5-dimethylthiazol-2-yl)-2,5-diphenyltetrazolium bromide]. The assay was performed in 96-well microtiter plates. Each well contained a reaction mixture with a final concentration of: 0.1 M KH2PO4, pH 7.4, 1 mM MTT, 0.2 mM PMS, tested substance in a concentration range of 0.1 nM - 1 µM and 10 µM N^6-isopentenyladenine (iP) as a substrate. To this reaction mixture 100 µL of medium containing the active enzyme ZmCKX1 was added. The enzyme was produced by the yeast Yarrowia lipolytica and isolated according to the protocol (Kopečný D. et al., 2005, […] 87:1011-1022). The plates were incubated for 30 min at 37 °C and the enzymatic reaction was stopped by the addition of 25 µL of 35% acetic acid. Then, the absorbance at 578 nm was measured on a spectrophotometer, and the absorbance of the sample without the substrate was substracted as a reference value. The IC50 value was determined from the concentration-dependent curves in GraphPad Prism software. The values shown in Table 1 are the average of at least two measurements each performed in three repetitions. […] The substance 3,5DCl-Ph-U is 1-(3,5-dichlorophenyl)-3-phenylurea, which we have been prepared to compare its inhibitory activity with the compounds presented in the present invention. Addition of the amide group to the unsubstituted phenyl ring of this substance gives the compound 2AD-3,5DC, which has 42-fold better inhibitory activity with the ZmCKX1 enzyme than 3,5DCl-Ph-U. F-INCYDE ((2-fluoro-9H-purin-6-yl)-(3-methoxyphenyl)amine), CPPU (1-(2-chloropyridin-4-yl)-3-phenylurea), and DCPPU (1-(2,6-dichloropyridin-4-yl)-3-phenylurea) are substances known in the prior art.
For orientation: Tetrazolium assays rely on reduction of a dye to a coloured formazan, in cell work by metabolically active cells.
Molecule `O=C(Nc1ccccc1)Nc1ccnc(Cl)c1` [CPPU, 1-(2-chloro-4-pyridyl)-3-phenylurea, reference compound] had a half-maximal inhibitory concentration (IC50) of 18 µM. Same read-out and setting: the value for `NC(=O)c1ccccc1NC(=O)Nc1cccc(Br)c1` [compound 2, 2-[3-(3-bromophenyl)ureido]benzamide] was 0.34 µM; that for `NC(=O)c1ccccc1NC(=O)Nc1cc(Br)cc(Br)c1` [compound 7, 2-[3-(3,5-dibromophenyl)ureido]benzamide] was 0.047 µM; that for `NC(=O)c1ccccc1NC(=O)Nc1cc(Cl)cc(Br)c1` [compound 9, 2-[3-(3-bromo-5-chlorophenyl)ureido]benzamide] was 0.04 µM. The same measure, in the same setting: the value for `NC(=O)c1ccccc1NC(=O)Nc1cc(Cl)cc(OC(F)(F)F)c1` [compound 11, 2-[3-(3-Chloro-5-trifluoromethoxyphenyl)ureido]benzamide] was 0.12 µM; that for `NC(=O)c1ccc(F)cc1NC(=O)Nc1cccc(Cl)c1` [compound 12, 2-[3-(3-chlorophenyl)ureido]-4-fluorobenzamide] was 0.09 µM; that for `COc1cc(Cl)cc(NC(=O)Nc2cc(Br)ccc2C(N)=O)c1` [compound 20, 4-bromo-2-[3-(3-chloro-5-methoxyphenyl)ureido]benzamide] was 0.034 µM. On the same count and under the same terms, the figure for `COc1ccc(C(N)=O)c(NC(=O)Nc2cccc(Br)c2)c1` [compound 23, 2-[3-(3-bromophenyl)ureido]-4-methoxybenzamide] is 0.033 µM. For `COc1ccc(C(N)=O)c(NC(=O)Nc2cc(Cl)cc(Br)c2)c1` [compound 25, 2-[3-(3-bromo-5-chlorophenyl)ureido]-4-methoxybenzamide], the IC50 was determined as 0.001 µM.

Molecule `NC(=O)c1ccc(OC(F)(F)F)cc1NC(=O)Nc1cccc(Br)c1` [compound 27, 2-[3-(3-bromophenyl)ureido]-4-trifluoromethoxybenzamide] showed an IC50 of 0.007 µM. On the same count and under the same terms, the value for `NC(=O)c1ccc(OC(F)(F)F)cc1NC(=O)Nc1cc(Cl)cc(Cl)c1` [compound 28, 2-[3-(3,5-Dichlorophenyl)ureido]-4-trifluoromethoxybenzamide] was 0.001 µM. The same measure, in the same setting: the value for `CCNC(=O)c1ccc(Br)cc1NC(=O)Nc1cc(Cl)cc(Cl)c1` [compound 35, 4-Bromo-2-[3-(3,5-dichlorophenyl)ureido]-N-ethylbenzamide] was 0.003 µM.

Staying with this test, now noted: 10 µM iP as substrate, pH 7.4, 30 min at 37 °C; average of at least two measurements; read-out: IC50 (µM) ZmCKX1.
In the case of `O=C(Nc1ccccc1)Nc1cc(Cl)cc(Cl)c1` [3,5DCl-Ph-U, 1-(3,5-dichlorophenyl)-3-phenylurea, reference compound], the IC50 was 0.84 µM. Same read-out and setting: the value for `O=C(Nc1ccccc1)Nc1cc(Cl)nc(Cl)c1` [DCPPU, 1-(2,6-dichloropyridin-4-yl)-3-phenylurea, reference compound] was 4.5 µM. Same read-out and setting: the figure for `COc1cccc(Nc2nc(F)nc3[nH]cnc23)c1` [F-INCYDE, (2-fluoro-9H-purin-6-yl)-(3-methoxyphenyl)amine, reference compound] is 1 µM; for `NC(=O)c1ccccc1NC(=O)Nc1cccc(F)c1` [compound 1, 2-[3-(3-fluorophenyl)ureido]benzamide] it is 0.45 µM; for `COc1cccc(NC(=O)Nc2ccccc2C(N)=O)c1` [compound 3] it is 0.32 µM. Consider `NC(=O)c1ccccc1NC(=O)Nc1cccc(OC(F)(F)F)c1` [compound 4], for which the IC50 is 0.21 µM.

Take `NC(=O)c1ccccc1NC(=O)Nc1cc(F)cc(F)c1` [compound 5, 2-[3-(3,5-difluorophenyl)ureido]benzamide]: the IC50 turned out to be 0.16 µM. On the same count and under the same terms, the figure for `NC(=O)c1ccccc1NC(=O)Nc1cc(Cl)cc(Cl)c1` [compound 6, 2-[3-(3,5-Dichlorophenyl)ureido]benzamide] is 0.022 µM. For `NC(=O)c1ccccc1NC(=O)Nc1cc(F)cc(Cl)c1` [compound 8, 2-[3-(3-Chloro-5-fluorophenyl)ureido]benzamide], the IC50 came out at 0.11 µM. Same read-out and setting: the value for `Cc1cc(Cl)cc(NC(=O)Nc2ccccc2C(N)=O)c1` [compound 10, 2-[3-(3-chloro-5-methylphenyl)ureido]benzamide] was 0.07 µM; that for `NC(=O)c1ccc(F)cc1NC(=O)Nc1cc(Cl)cc(Cl)c1` [compound 13, 2-[3-(3,5-dichlorophenyl)ureido]-4-fluorobenzamide] was 0.018 µM. With `COc1cc(Cl)cc(NC(=O)Nc2cc(F)ccc2C(N)=O)c1` [compound 14, 2-[3-(3-chloro-5-methoxyphenyl)ureido]-4-fluorobenzamide], the IC50 is 0.028 µM. `NC(=O)c1ccc(Cl)cc1NC(=O)Nc1cccc(Cl)c1` [compound 15, 4-chloro-2-[3-(3-chlorophenyl)ureido]benzamide]: the IC50 was found to be 0.035 µM. Still for that read-out and setting: the value for `NC(=O)c1ccc(Cl)cc1NC(=O)Nc1cc(Cl)cc(Cl)c1` [compound 16, 4-Chloro-2-[3-(3,5-dichlorophenyl)ureido]benzamide] was 0.002 µM; that for `COc1ccc(C(N)=O)c(NC(=O)Nc2cccc(F)c2)c1` [compound 21, 2-[3-(3-fluorophenyl)ureido]-4-methoxybenzamide] was 0.058 µM; that for `COc1ccc(C(N)=O)c(NC(=O)Nc2cccc(Cl)c2)c1` [compound 22, 2-[3-(3-chlorophenyl)ureido]-4-methoxybenzamide] was 0.035 µM. The same measure, in the same setting: the value for `NC(=O)c1ccc(OC(F)(F)F)cc1NC(=O)Nc1cccc(Cl)c1` [compound 26, 2-[3-(3-chlorophenyl)ureido]-4-trifluoromethoxybenzamide] was 0.009 µM; that for `CNC(=O)c1ccccc1NC(=O)Nc1cc(Cl)cc(Cl)c1` [compound 29, 2-[3-(3,5-dichlorophenyl)ureido]-N-methylbenzamide] was 0.03 µM; that for `CNC(=O)c1ccc(F)cc1NC(=O)Nc1cc(Cl)cc(Cl)c1` [compound 30, 2-[3-(3,5-dichlorophenyl)ureido]-4-fluoro-N-methylbenzamide] was 0.021 µM.

Regarding `CNC(=O)c1ccc(Cl)cc1NC(=O)Nc1cc(Cl)cc(Cl)c1` [compound 31, 4-chloro-2-[3-(3,5-dichlorophenyl)ureido]-N-methylbenzamide], the IC50 came to 0.014 µM. Regarding `CNC(=O)c1ccc(OC)cc1NC(=O)Nc1cccc(Cl)c1` [compound 33, 2-[3-(3-chlorophenyl)ureido]-4-methoxy-N-methylbenzamide], the concentration for half-maximal inhibition (IC50) came out at 0.006 µM.

As for `CCNC(=O)c1ccccc1NC(=O)Nc1cc(Cl)cc(Cl)c1` [compound 34, 2-[3-(3,5-dichlorophenyl)ureido]-N-ethylbenzamide], the IC50 is 0.038 µM.

In the case of `CCNC(=O)c1ccc(OC)cc1NC(=O)Nc1cccc(Cl)c1` [compound 36, 2-[3-(3-chlorophenyl)ureido]-4-methoxy-N-ethylbenzamide], the IC50 came out at 0.021 µM.

Turning to `CCNC(=O)c1ccc(OC)cc1NC(=O)Nc1cc(Cl)cc(Cl)c1` [compound 37, 2-[3-(3,5-dichlorophenyl)ureido]-4-methoxy-N-ethylbenzamide], the IC50 came out at 0.002 µM. As to `CCNC(=O)c1ccc(OC(F)(F)F)cc1NC(=O)Nc1cc(F)cc(Cl)c1` [compound 38, 2-[3-(3-chloro-5-fluorophenyl)ureido]-4-trifluoromethoxy-N-ethylbenzamide], the IC50 is 0.001 µM. On the same count and under the same terms, the value for `CCCNC(=O)c1ccccc1NC(=O)Nc1cccc(F)c1` [compound 39, 2-[3-(3-fluorophenyl)ureido]-N-propylbenzamide] was 0.17 µM; that for `CCCNC(=O)c1ccccc1NC(=O)Nc1cc(F)cc(F)c1` [compound 40, 2-[3-(3,5-difluorophenyl)ureido]-N-propylbenzamide] was 0.062 µM.

As for `CCCNC(=O)c1ccccc1NC(=O)Nc1cc(Cl)cc(Cl)c1` [compound 41, 2-[3-(3,5-dichlorophenyl)ureido]-N-propylbenzamide], the IC50 is 0.03 µM.

The test is the same for the next values; noted with them: ratio versus 3,5DCl-Ph-U.
Turning to `NC(=O)c1ccccc1NC(=O)Nc1cc(Cl)cc(Cl)c1` [compound 6, 2-[3-(3,5-Dichlorophenyl)ureido]benzamide], the “better inhibitory activity with the ZmCKX1 enzyme than 3,5DCl-Ph-U” value was found to be 42 fold.

Staying with this test, now noted: read-out: IC50 (µM) ZmCKX1; 10 µM iP as substrate, pH 7.4, 30 min at 37 °C; average of at least two measurements.
On to `NC(=O)c1ccc(Cl)cc1NC(=O)Nc1cc(Cl)cc(Br)c1` [compound 17, 2-[3-(3-bromo-5-chlorophenyl)ureido]-4-chlorobenzamide], for which the IC50 worked out at 0.001 µM. The same measure, in the same setting: the figure for `NC(=O)c1ccc(Br)cc1NC(=O)Nc1cccc(Cl)c1` [compound 18, 4-bromo-2-[3-(3-chlorophenyl)ureido]benzamide] is 0.011 µM; for `NC(=O)c1ccc(Br)cc1NC(=O)Nc1cc(Cl)cc(Cl)c1` [compound 19, 4-Bromo-2-[3-(3,5-dichlorophenyl)ureido]benzamide] it is 0.001 µM. For the molecule `CNC(=O)c1ccc(Br)cc1NC(=O)Nc1cc(Cl)cc(Cl)c1` [compound 32, 4-bromo-2-[3-(3,5-dichlorophenyl)ureido]-N-methylbenzamide], the IC50 was 0.01 µM.

As for `CCCNC(=O)c1ccc(Cl)cc1NC(=O)Nc1cc(F)cc(F)c1` [compound 42, 4-chloro-2-[3-(3,5-difluorophenyl)ureido]-N-propylbenzamide], the IC50 was 0.022 µM.
